From patent US20240343694A1, “PYRIMIDINE DERIVATIVE, METHOD FOR PREPARING SAME, AND PHARMACEUTICAL COMPOSITION FOR PREVENTING OR TREATING CANCER COMPRISING SAME AS ACTIVE INGREDIENT” (KOREA RESERARCH INSTITUTE OF CHEMICAL TECHNOLOGY, priority 2021, published 2024) come the findings set out here.

Format in all cases: biochemical
Holding throughout (settings): recombinant enzyme, 37° C. for 2 hours

One assay has as its target EGFR A763_Y764insFHEA (Homo sapiens (Human), UniProt P00533, INS763FHEA). In words: HTRF inhibitory activity against EGFR mutant enzyme (EGFR A763_Y764insFHEA). As to the method:
(§1) The activity of the compounds of the present invention against EGFR mutant enzymes was measured using the HTRF system purchased from Cisbio as follows. For an EGFR mutant enzyme, the EGFR del19 enzyme was a recombinant protein purchased from Carna Biosciences, and the EGFR A763_Y764insFHEA enzyme was a recombinant protein purchased from SignalChem, respectively.
(§2) The composition of the assay buffer used for activity measurement was 50 mM tris-HCl pH 7.5, 100 mM NaCl, 7.5 mM MgCl2, 3 mM KCl, 0.01% tween 20, 0.1% BSA, and 1 mM DTT. An enzymatic reaction was performed using a peptide substrate labeled with ATP at a concentration of […] and biotin at a concentration of […]. The analysis of the inhibitory effect of the compounds on EGFR activity was performed according to the following method. • Component 1:4 μL of EGFR mutant enzyme • Component 2:2 μL of compound solution • Component 3:4 μL of ATP and a biotin labeled peptide
(§3) The enzyme reaction begins by first mixing component 1 and component 2 and then adding component 3 thereto. After the reaction at 37° C. for 2 hours, […] of a measurement solution consisting of streptavidin-XL665 and a europium-labeled anti-phosphotyrosine antibody purchased from Cisbio was added to the enzyme reaction solution and reacted at room temperature for 1 hour. Finally, the ratio of fluorescence values at 615 nm and 665 nm was measured using Perkin-Elmer's Envision instrument to calculate enzyme activity and confirm the inhibitory ability of the compounds. The measured values at 7 compound concentrations were analyzed using the Prism program (version 5.01, Graphpad Software, Inc.), and the IC50 (μM) values, which are measures of the compounds' inhibitory activity, were calculated.
Background: Time-resolved FRET reads energy transfer from a long-lived donor to a nearby acceptor.

The target of the next assay is EGFR del19 (Homo sapiens (Human), UniProt P00533, DEL746-750). In words: HTRF inhibitory activity against EGFR mutant enzyme (EGFR del19). How it is done: as §1, §2, §3
The next assay concerns the target HER2 A775_G776insYVMA (Homo sapiens (Human), UniProt P04626, INS775YVMA). In words: HTRF inhibitory activity against HER2 mutant enzyme. As to the method:
The activity of the compounds of the present invention against HER mutant enzymes was measured using the HTRF system purchased by Cisbio as follows. As a HER2 mutant enzyme, the HER2 A775_G776insYVMA mutant enzyme was used by purchasing a recombinant protein provided by Carna Biosciences.
as §2, with “mM DTT. In addition thereto, the enzymatic reaction” for “mM DTT. An enzymatic reaction”, “of the activity inhibitory effect” for “of the inhibitory effect”, “compounds on HER2 A775_G776insYVMA mutation was performed” for “compounds on EGFR activity was performed”, “μL of HER2 A775_G776insYVMA mutant enzyme” for “μL of EGFR mutant enzyme”
as §3, with “Finally, the ratio of fluorescence values at 615 nm and 665 nm was measured using Perkin-Elmer's Envision instrument to calculate enzyme activity and confirm the inhibitory ability of the compounds.” left out, “ability,” for “activity,”

Chain of EGFR del19 (P00533 other isoform, or with tags, fused parts or gaps del 1-668/del 746-750 limits assumed): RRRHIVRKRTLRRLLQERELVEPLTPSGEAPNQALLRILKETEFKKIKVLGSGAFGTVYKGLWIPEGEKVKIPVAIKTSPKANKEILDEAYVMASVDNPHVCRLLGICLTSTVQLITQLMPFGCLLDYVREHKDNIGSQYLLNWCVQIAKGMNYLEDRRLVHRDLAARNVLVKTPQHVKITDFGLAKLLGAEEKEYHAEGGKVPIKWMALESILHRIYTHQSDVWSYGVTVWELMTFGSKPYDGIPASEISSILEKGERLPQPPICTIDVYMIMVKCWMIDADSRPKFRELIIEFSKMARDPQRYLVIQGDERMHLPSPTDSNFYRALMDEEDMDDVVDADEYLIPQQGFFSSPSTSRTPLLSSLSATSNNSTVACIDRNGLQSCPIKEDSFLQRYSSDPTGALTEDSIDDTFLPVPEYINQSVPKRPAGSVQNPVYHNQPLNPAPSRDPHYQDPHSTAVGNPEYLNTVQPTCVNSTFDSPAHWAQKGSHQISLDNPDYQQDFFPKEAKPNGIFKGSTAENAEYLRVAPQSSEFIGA
Chain of EGFR A763_Y764insFHEA (P00533 other isoform, or with tags, fused parts or gaps del 1-694/ins FHEA behind 763 limits assumed): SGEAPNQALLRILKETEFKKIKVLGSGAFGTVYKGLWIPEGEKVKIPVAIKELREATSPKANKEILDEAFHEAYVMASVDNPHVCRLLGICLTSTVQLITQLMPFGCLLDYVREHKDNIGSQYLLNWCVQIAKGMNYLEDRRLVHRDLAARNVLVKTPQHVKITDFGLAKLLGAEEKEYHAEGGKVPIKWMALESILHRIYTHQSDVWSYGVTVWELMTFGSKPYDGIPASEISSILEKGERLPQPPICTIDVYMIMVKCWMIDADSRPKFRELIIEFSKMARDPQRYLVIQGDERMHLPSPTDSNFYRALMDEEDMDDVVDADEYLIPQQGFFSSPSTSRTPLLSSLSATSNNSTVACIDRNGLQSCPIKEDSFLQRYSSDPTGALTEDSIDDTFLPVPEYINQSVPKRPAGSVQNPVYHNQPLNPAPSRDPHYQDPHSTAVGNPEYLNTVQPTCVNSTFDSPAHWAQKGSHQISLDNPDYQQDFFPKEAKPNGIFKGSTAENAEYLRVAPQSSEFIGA
Chain of HER2 A775_G776insYVMA (P04626 other isoform, or with tags, fused parts or gaps del 1-675/ins YVMA behind 775 limits assumed): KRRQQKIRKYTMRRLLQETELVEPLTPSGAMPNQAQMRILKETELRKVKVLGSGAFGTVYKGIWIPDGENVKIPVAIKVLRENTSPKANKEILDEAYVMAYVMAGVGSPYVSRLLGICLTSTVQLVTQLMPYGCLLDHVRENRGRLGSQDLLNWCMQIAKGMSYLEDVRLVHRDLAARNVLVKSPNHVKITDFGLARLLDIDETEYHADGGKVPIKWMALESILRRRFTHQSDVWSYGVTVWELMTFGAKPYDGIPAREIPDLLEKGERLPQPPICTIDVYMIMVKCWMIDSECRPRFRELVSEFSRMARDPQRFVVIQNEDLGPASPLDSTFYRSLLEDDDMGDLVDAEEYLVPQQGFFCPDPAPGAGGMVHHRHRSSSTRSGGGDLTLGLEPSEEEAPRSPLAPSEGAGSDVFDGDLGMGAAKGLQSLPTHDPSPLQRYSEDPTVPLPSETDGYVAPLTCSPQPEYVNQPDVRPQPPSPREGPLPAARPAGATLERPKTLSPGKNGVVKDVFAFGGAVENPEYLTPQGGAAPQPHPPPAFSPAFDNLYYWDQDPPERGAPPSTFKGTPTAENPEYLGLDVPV

Turning to `C=CC(=O)Nc1cc(Nc2nccc(Nc3ccccc3NS(=O)(=O)CCC)n2)c(OC)cc1N(C)CCN(C)C` [Example 8, N-(2-((2-(dimethylamino)ethyl)(methyl)amino)-4-methoxy-5-((4-((2-(propylsulfonamido)phenyl)amino)pyrimidin-2-yl)amino)phenyl)acrylamide], the IC50 stood at 0.02 µM at EGFR A763_Y764insFHEA, 0.01 µM on EGFR del19 and 0.92 µM on HER2 A775_G776insYVMA.

Regarding `C=CC(=O)Nc1cc(Nc2nccc(Nc3ccccc3NS(=O)(=O)c3ccc(C)cc3)n2)c(OC)cc1N(C)CCN(C)C` [Example 9, N-(2-((2-(dimethylamino)ethyl)(methyl)amino)-4-methoxy-5-((4-((2-((4-methylphenyl)sulfonamido)phenyl)amino)pyrimidin-2-yl)amino)phenyl)acrylamide], the IC50 turned out to be 0.09 µM on EGFR A763_Y764insFHEA, 0.02 µM on EGFR del19 and 2.4 µM at HER2 A775_G776insYVMA.

As to `C=CC(=O)Nc1cc(Nc2nccc(Nc3ccccc3NS(=O)(=O)CC)n2)c(OC)cc1N(C)CCN(C)C` [Example 10, N-(2-((2-(dimethylamino)ethyl)(methyl)amino)-5-((4-((2-(ethylsulfonamido)phenyl)amino)pyrimidin-2-yl)amino)-4-methoxyphenyl)acrylamide], the IC50 at EGFR A763_Y764insFHEA is 0.01 µM; on EGFR del19, less than 0.001 µM; at HER2 A775_G776insYVMA it was 0.44 µM.

As for `C=CC(=O)Nc1cc(Nc2ncc(F)c(Nc3ccccc3NS(=O)(=O)CC)n2)c(OC)cc1N(C)CCN(C)C` [Example 12, N-(2-((2-(dimethylamino)ethyl)(methyl)amino)-5-((4-((2-(ethylsulfonamido)phenyl)amino)-5-fluoropyrimidin-2-yl)amino)-4-methoxyphenyl)acrylamide], the IC50 on EGFR A763_Y764insFHEA is 0.004 µM; at EGFR del19, less than 0.001 µM; on HER2 A775_G776insYVMA, 0.069 µM.

Turning to `C=CC(=O)Nc1cc(Nc2ncc(F)c(Nc3ccccc3NS(=O)(=O)CCC)n2)c(OC)cc1N(C)CCN(C)C` [Example 13, N-(2-((2-(dimethylamino)ethyl)(methyl)amino)-5-((5-fluoro-4-((2-(propylsulfonamido)phenyl)amino)pyrimidin-2-yl)amino)-4-methoxyphenyl)acrylamide], the half-maximal inhibitory concentration (IC50) on EGFR A763_Y764insFHEA is 0.01 µM; on EGFR del19 it was 0.002 µM; at HER2 A775_G776insYVMA, 0.14 µM.

With `C=CC(=O)Nc1cc(Nc2ncc(F)c(Nc3ccccc3NS(=O)(=O)c3ccccc3)n2)c(OC)cc1N(C)CCN(C)C` [Example 14, N-(2-((2-(dimethylamino)ethyl)(methyl)amino)-5-((5-fluoro-4-((2-(phenylsulfonamido)phenyl)amino)pyrimidin-2-yl)amino)-4-methoxyphenyl)acrylamide], the figures for the half-inhibitory concentration (IC50) at EGFR A763_Y764insFHEA, at EGFR del19 and at HER2 A775_G776insYVMA were 0.002 µM, 0.001 µM and 0.41 µM, respectively.

For `C=CC(=O)Nc1cc(Nc2ncc(F)c(Nc3ccccc3NS(=O)(=O)c3ccc(C)cc3)n2)c(OC)cc1N(C)CCN(C)C` [Example 15, N-(2-((2-(dimethylamino)ethyl)(methyl)amino)-5-((5-fluoro-4-((2-((4-methylphenyl)sulfonamido)phenyl)amino)pyrimidin-2-yl)amino)-4-methoxyphenyl)acrylamide], the values for the concentration for half-maximal inhibition (IC50) on EGFR A763_Y764insFHEA, on EGFR del19 and at HER2 A775_G776insYVMA were 0.01 µM, 0.01 µM and 1.2 µM, respectively.

Consider `C=CC(=O)Nc1cc(Nc2ncc(C)c(Nc3ccccc3NS(=O)(=O)c3ccc(C)cc3)n2)c(OC)cc1N(C)CCN(C)C` [Example 17, N-(2-((2-(dimethylamino)ethyl)(methyl)amino)-4-methoxy-5-((5-methyl-4-((2-((4-methylphenyl)sulfonamido)phenyl)amino)pyrimidin-2-yl)amino)phenyl)acrylamide], for which the half-maximal inhibitory concentration (IC50) on EGFR A763_Y764insFHEA turned out to be 0.02 µM; at EGFR del19, 0.01 µM; at HER2 A775_G776insYVMA, 1.1 µM.

`C=CC(=O)Nc1cc(Nc2ncc(C)c(Nc3ccccc3NS(=O)(=O)CCC)n2)c(OC)cc1N(C)CCN(C)C` [Example 18, N-(2-((2-(dimethylamino)ethyl)(methyl)amino)-4-methoxy-5-((5-methyl-4-((2-(propylsulfonamido)phenyl)amino)pyrimidin-2-yl)amino)phenyl)acrylamide]: the results for the half-inhibitory concentration (IC50) on EGFR A763_Y764insFHEA, on EGFR del19 and at HER2 A775_G776insYVMA were 0.007 µM, less than 0.001 µM and 0.11 µM, respectively.

On to `C=CC(=O)Nc1cc(Nc2ncc(C)c(Nc3ccccc3NS(=O)(=O)CC)n2)c(OC)cc1N(C)CCN(C)C` [Example 19, N-(2-((2-(dimethylamino)ethyl)(methyl)amino)-5-((4-((2-(ethylsulfonamido)phenyl)amino)-5-methylpyrimidin-2-yl)amino)-4-methoxyphenyl)acrylamide], for which the IC50 at EGFR A763_Y764insFHEA was 0.003 µM; on EGFR del19 it was less than 0.001 µM; at HER2 A775_G776insYVMA, 0.034 µM.

As to `C=CC(=O)Nc1cc(Nc2ncc(C)c(Nc3ccccc3NS(=O)(=O)c3ccccc3)n2)c(OC)cc1N(C)CCN(C)C` [Example 20, N-(2-((2-(dimethylamino)ethyl)(methyl)amino)-4-methoxy-5-((5-methyl-4-((2-(phenylsulfonamido)phenyl)amino)pyrimidin-2-yl)amino)phenyl)acrylamide], the values for the 50% inhibitory concentration (IC50) at EGFR A763_Y764insFHEA, on EGFR del19 and at HER2 A775_G776insYVMA were 0.006 µM, 0.002 µM and 0.37 µM, respectively.

For `C=CC(=O)Nc1cc(Nc2ncc(Cl)c(Nc3ccccc3NS(C)(=O)=O)n2)c(OC)cc1N(C)CCN1CCCCC1` [Example 23, N-(5-((5-chloro-4-((2-(methylsulfonamido)phenyl)amino)pyrimidin-2-yl)amino)-4-methoxy-2-(methyl(2-(piperidin-1-yl)ethyl)amino)phenyl)acrylamide], the IC50 on EGFR A763_Y764insFHEA was 0.003 µM; at EGFR del19, less than 0.001 µM; on HER2 A775_G776insYVMA, 0.03 µM.

`COc1cc(N2CCOCC2)c(NC(=O)/C=C/CN(C)C)cc1Nc1ncc(Cl)c(Nc2ccccc2NS(C)(=O)=O)n1` [Example 26, (E)-N-(5-((5-chloro-4-((2-(methylsulfonamido)phenyl)amino)pyrimidin-2-yl)amino)-4-methoxy-2-morpholinophenyl)-4-(dimethylamino)buten-2-amide]: the IC50 at EGFR A763_Y764insFHEA was determined as 0.2 µM; on EGFR del19, 0.004 µM; at HER2 A775_G776insYVMA it was 0.08 µM.

With `COc1cc(N2CCN(C)CC2)c(NC(=O)/C=C/CN(C)C)cc1Nc1ncc(Cl)c(Nc2ccccc2NS(C)(=O)=O)n1` [Example 27, (E)-N-(5-((5-chloro-4-((2-(methylsulfonamido)phenyl)amino)pyrimidin-2-yl)amino)-4-methoxy-2-(4-methylpiperazin-1-yl)phenyl)-4-(dimethylamino)buten-2-amide], the IC50 was 0.009 µM on EGFR A763_Y764insFHEA, 0.003 µM at EGFR del19 and 0.03 µM at HER2 A775_G776insYVMA.

With `COc1cc(N(C)CCN(C)C)c(NC(=O)/C=C/CN(C)C)cc1Nc1ncc(Cl)c(Nc2ccccc2NS(C)(=O)=O)n1` [Example 28, (E)-N-(5-((5-chloro-4-((2-(methylsulfonamido)phenyl)amino)pyrimidin-2-yl)amino)-2-((2-(dimethylamino)ethyl)(methyl)amino)-4-methoxyphenyl)-4-(dimethylamino)buten-2-amide], the 50% inhibitory concentration (IC50) at EGFR A763_Y764insFHEA is 0.008 µM; on EGFR del19, less than 0.001 µM; at HER2 A775_G776insYVMA it was 0.07 µM.

For `C=CC(=O)Nc1cc(Nc2ncc(Cl)c(Nc3cccc(Cl)c3NS(C)(=O)=O)n2)c(OC)cc1N(C)CCN(C)C` [Example 34, N-(5-((5-chloro-4-((3-chloro-2-(methylsulfonamido)phenyl)amino)pyrimidin-2-yl)amino)-2-((2-(dimethylamino)ethyl)(methyl)amino)-4-methoxyphenyl)acrylamide], the results for the half-maximal inhibitory concentration (IC50) at EGFR A763_Y764insFHEA, at EGFR del19 and at HER2 A775_G776insYVMA were 0.001 µM, less than 0.001 µM and 0.02 µM, respectively.

By IC50 is commonly meant the concentration that inhibits the measured activity by half.
